Assay results published in PubChem BioAssay (NCI).
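Interpolation was linear, between the two tested concentrations surrounding the appropriate level; five concentrations were tested over 48 hours in 96-well plates. GI50 = concentration required for 50% inhibition of growth. Definition used: TGI = concentration required for complete inhibition of growth.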

Key:
Test in all cases: growth of human tumour cells (NCI), 48 h
[1] = test system: MDA-MB-231 breast
[2] = test system: MALME-3M melanoma
[3] = test system: RPMI-8226 leukemia
[4] = test system: SF-268 CNS
[5] = test system: SK-MEL-28 melanoma
[6] = test system: UO-31 renal
[7] = test system: K-562 leukemia
[8] = test system: MDA-MB-435
[9] = test system: OVCAR-3 ovarian
[10] = test system: HOP-62 NSCLC

SMILES	TGI [1]	TGI [2]	TGI [3]	TGI [4]	TGI [5]	TGI [6]	TGI [7]	TGI [8]	GI50 [1]	GI50 [2]	GI50 [3]	GI50 [4]	GI50 [5]	GI50 [6]	GI50 [9]	TGI [9]	GI50 [7]	TGI [10]
COc1ccc(/C=C/C2=NN(c3cccc(S(=O)(=O)O)c3)C3(C2)SCC(=O)N3c2nc3ccccc3s2)cc1 (stereo unspecified)	> 100 µM	> 100 µM	84.5 µM	> 100 µM	> 100 µM	> 100 µM	> 100 µM	> 100 µM										
Oc1[nH]c2ccccc2c1/C=c1/cc2c(c(-c3ccc(F)cc3)n1)=Nc1ccccc1-2	2.39 µM	2.26 µM	2.03 µM	9.26 µM	2.47 µM	2.21 µM	3.55 µM		0.609 µM	0.843 µM	0.406 µM	1.01 µM	0.777 µM	0.353 µM	0.233 µM	0.591 µM	0.435 µM	
Cc1ccccc1NC(=O)Cc1csc2[n+]1C(=O)/C(=C/c1ccc([N+](=O)[O-])cc1)S2	> 100 µM				> 100 µM	85.5 µM		> 100 µM								> 100 µM		> 100 µM
Cc1nc2ccccc2c(/C=C/c2ccc(Cl)cc2)c1C(=O)/C=C/c1ccc(Cl)cc1			6.34 µM		3.12 µM	2.25 µM	> 100 µM				1.2 µM		1.67 µM	1.06 µM			1.28 µM	
COc1cc(N(Cc2ccc3oc(=O)c(-c4ccccc4)nc3c2)Cc2ccc3oc(=O)c(-c4ccccc4)nc3c2)cc(OC)c1OC	> 10 µM		> 10 µM	> 10 µM	> 10 µM	> 10 µM	> 10 µM	> 10 µM								> 10 µM		> 10 µM
COc1ccc2oc(=O)c(-c3csc(C)n3)cc2c1	68 µM		> 100 µM	50.3 µM	> 100 µM	> 100 µM	> 100 µM	> 100 µM										84 µM
C[C@H]1S[C@H](c2c(Cl)cccc2Cl)N2Cc3ccccc3N=C12	> 100 µM		> 100 µM	32.5 µM		26.3 µM	> 100 µM	> 100 µM								26.9 µM		32.6 µM
Nc1c(Cl)ncnc1NCCCNc1ncnc(Cl)c1N			> 100 µM	> 100 µM	> 100 µM	> 100 µM	> 100 µM									> 100 µM		> 100 µM
CSc1c(C(=O)Nc2ccc(Cl)cc2)c(N)n(N)c(=O)c1C#N	> 100 µM	> 100 µM	> 100 µM	> 100 µM	> 100 µM	> 100 µM	> 100 µM	> 100 µM								> 100 µM		
Cc1c(/C=N/N(C)C)oc2c1cc(O)c1ncccc12		84.5 µM	> 100 µM	> 100 µM	> 100 µM	7.12 µM	> 100 µM											> 100 µM
NNC(=O)c1cc(=O)[nH][nH]1	> 100 µM	> 100 µM	> 100 µM	> 100 µM		> 100 µM	> 100 µM	> 100 µM										
COC(=O)c1ccc(Nc2nc3nc[nH]c3c(=O)[nH]2)cc1	> 100 µM	> 100 µM	> 100 µM	> 100 µM	> 100 µM			> 100 µM								> 100 µM		> 100 µM
